Legend:
Type in all cases: cell-based, human
[1] = tested on: differentiated SH-SY5Y cells; assay: Mitochondrial membrane potential, JC-1 dye; conditions: control 100.0%
Text: Mitochondrial membrane potential (ΔΨm) is a valuable parameter that reflects the energy status and functional integrity of cells, and the JC-1 dye is widely used as an indicator of ΔΨm. In healthy cells with high ΔΨm, JC-1 forms J-aggregates that emit red fluorescence. In apoptotic or unhealthy cells with low ΔΨm, JC-1 remains in its monomeric form and emits green fluorescence. The ratio of red to green fluorescence intensity is proportional to the degree of polarization of the mitochondrial membrane (a higher ratio indicates a more polarized membrane).
Thus, the SH-SY5Y cells were seeded onto 24-well plates (25,000 cells/cm^2) following the previously described seeding and differentiation protocol. On the day of the experiment, the cells were exposed to different concentrations of the tested drugs (EC20 and EC50) for 24 h (37 °C, 5% CO2). CCCP (100 µM, 2 h) was used as a positive control for mitochondrial membrane depolarization. At the end of the incubation period, the medium was removed, and the cells were incubated, for 30 min, with 10 µM JC-1 under light protection (37 °C, 5% CO2). Subsequently, the plates were centrifuged (5 min, 300× g, room temperature), the supernatants were rejected, and the cells were washed 2 times with warm HBSS with calcium and magnesium. Fluorescence was recorded at the wavelengths of 485 nm excitation and 535 nm emission for JC-1 monomers and 535 nm excitation and 595 nm emission wavelengths for J-aggregates in a multi-well plate reader (PowerWaveX, BioTek Instruments, Winooski, VT, USA). The results are presented as the percentage of JC-1 red/green fluorescence ratio relative to the control cells, and a minimum of 5 independent experiments were conducted in triplicate.

[2] = tested on: differentiated SH-SY5Y cells; assay: Intracellular ATP levels, luciferin-luciferase bioluminescence
Procedure: Adenosine triphosphate (ATP) is often considered the primary energy currency of cells, being essential for several cellular activities, such as active transport, metabolism, and cell signaling, among many others. The intracellular ATP levels were measured using a bioluminescence method, consisting of the reaction between luciferin and ATP in the presence of luciferase, where the resulting light intensity is directly proportional to the amount of ATP present in the cells.
Thus, the SH-SY5Y cells were seeded onto 6-well plates (25,000 cells/cm^2) following the previously described seeding and differentiation protocol. On the day of the experiment, the cells were exposed to different concentrations of the tested drugs (EC20 and EC50) for 24 h (37 °C, 5% CO2). At the end of the incubation period, the cells were centrifuged (5 min, 250× g, 4 °C), the supernatants were rejected, and proteins were precipitated with 5% HClO4 for at least 30 min (4 °C). Subsequently, the acidic samples were collected from the plates, centrifuged (5 min, 16,000× g, 4 °C), and the supernatants were stored until further ATP analysis (−80 °C). To assess protein content, the pellets were resuspended in 1 M NaOH, maintained at 4 °C overnight, and stored until further analysis (−20 °C). A Bio-Rad DC™ protein assay kit (Bio-Rad Laboratories, Hercules, CA, USA) was used to analyze protein content, in accordance with the manufacturer’s guidelines.
Before the ATP quantification, the acidic samples were diluted (1:5) with 5% HClO4, and the diluted samples/standards were neutralized with an ice-cold KHCO3 solution (1:1) and centrifuged (16,000× g, 5 min, 4 °C). Then, 75 µL of each sample/standard supernatant was transferred into a white 96-well plate, 75 µL of a luciferin (300 µM)-luciferase (3,000,000 U/mL) solution (10–90%, respectively) was added, and bioluminescence (560 nm, 28 °C) was immediately measured in a multi-well plate reader (PowerWaveX, BioTek Instruments, Winooski, VT, USA).
ATP levels were standardized to protein content. The results are presented as a percentage relative to the control cells (0 µM). A minimum of 6 independent experiments were conducted in duplicate.

[3] = tested on: differentiated SH-SY5Y cells; assay: Neutral red (NR) uptake cytotoxicity assay; conditions: for EC50: Homo sapiens; for EC20 (concentration inducing 20% of cytotoxicity) / EC80 (concentration inducing 80% of cytotoxicity): NR uptake; for Bottom (baseline, % control) / Top (maximal cell death, % control): fitted NR curve, SH-SY5Y cells
Procedure: (§1) The cells were seeded at a density of 25,000 cells/cm^2. To achieve a more mature neuron-like phenotype, SH-SY5Y cells were initially cultured in a complete medium supplemented with RA (10 µM). Subsequently, 3 days post-seeding, TPA (80 nM) was added to each well, and the cells were maintained for another 3 days until use, thus achieving a dopaminergic phenotype. In all the experiments, the cells were used between passages 22 and 28.
(§2) The differentiated SH-SY5Y cells (25,000 cells/cm^2) and primary rat cortical cultures (150,000 cells/cm^2) were seeded onto 96-well plates as previously described.
(§3) Accordingly, 6 days after seeding (differentiated SH-SY5Y cells) or at 8 DIV (primary cultures), the cells were exposed, for 24 h (37 °C, 5% CO2), to different concentrations of the drugs (0–1000 µM). Thus, the tested concentrations ranged from 0 to 1000 µM for 2C-T-2 and 2C-T-4; 0 to 500 µM for 2C-T-7; 0 to 250 µM for 25T2-NBOMe, and 0 to 100 µM for 25T4-NBOMe and 25T7-NBOMe.
The NR uptake assay is based on the detection of viable cells through the incorporation of the NR dye by the cell’s lysosomes. In brief, after 24 h of exposure to the tested drugs, the differentiated SH-SY5Y cells and primary rat cortical cultures were incubated with NR (50 µg/mL in complete medium) for 90 or 210 min, respectively, at 37 °C, in a 5% CO2-95% air atmosphere. To extract the absorbed dye, an acidified ethanol solution was used, and the absorbance was then measured at 540 nm in a multi-well plate reader (PowerWaveX, BioTek Instruments, Winooski, VT, USA). The cytotoxicity was estimated by the percentage of NR uptake relative to the control cells, and a minimum of 4 independent experiments were conducted in triplicate.

[4] = tested on: differentiated SH-SY5Y cells; assay: MTT reduction cytotoxicity assay; conditions: for EC50: Homo sapiens, differentiated SH-SY5Y cells, 24 h of exposure, mean (95% CI); for Bottom (baseline, % control) / Top (maximal cell death, % control): fitted MTT curve, SH-SY5Y cells, 24 h
Procedure: as §1, §2, §3
The MTT reduction assay is based on the capacity of metabolically active cells to reduce the water-soluble yellow tetrazolium dye (MTT) into water-insoluble formazan crystals. In brief, after 24 h of exposure to the tested drugs, the differentiated SH-SY5Y cells were incubated with MTT (0.5 mg/mL in complete medium) for 90 min, at 37 °C, in a 5% CO2-95% air atmosphere. To solubilize the formed formazan crystals, an organic solvent (DMSO) was used, and the absorbance was then measured at 550 nm in a multi-well plate reader (PowerWaveX, BioTek Instruments, Winooski, VT, USA). The cytotoxicity was estimated by the percentage of MTT reduction relative to the control cells, and a minimum of 4 independent experiments were conducted in triplicate.

[5] = bound stated for both SH-SY5Y cells and primary rat cortical cultures, 24 h, read-out: EC50 values, NR uptake assay, both cellular models
[6] = differentiated SH-SY5Y cells, 24 h of exposure, mean (95% CI), read-out: NR EC50 Values
[7] = differentiated SH-SY5Y cells, 24 h, mean (95% CI)

| SMILES | mitochondrial membrane polarization (JC-1 red/green ratio), % of the control cells ([1]; drug at its EC20, 24 h) | mitochondrial membrane polarization (JC-1 red/green ratio), % of the control cells ([1]; drug at its EC50, 24 h) | decrease of intracellular ATP levels relative to control cells ([2]; drug at its EC20, 24 h) | decrease of intracellular ATP levels relative to control cells ([2]; drug at its EC50, 24 h) | EC50 [3, 5] | EC50 [3, 6] | EC20 (concentration inducing 20% of cytotoxicity) [3, 7] | EC80 (concentration inducing 80% of cytotoxicity) [3, 7] | Bottom (baseline, % control) ([3]; 24 h) | Top (maximal cell death, % control) ([3]; 24 h) | EC50 [4] | Bottom (baseline, % control) [4] | Top (maximal cell death, % control) [4] |
| --- | --- | --- | --- | --- | --- | --- | --- | --- | --- | --- | --- | --- | --- |
| CCSc1cc(OC)c(CCN)cc1OC.Cl [2C-T-2, 2-(4-(ethylthio)-2,5-dimethoxyphenyl)ethan-1-aminium chloride] | 58.4% | 55.2% | 18.1% | 24.8% | > 215 µM | 246 µM | 123.2 (107.1 to 138.8) μM | 491.0 (413.7 to 514.4) μM | 4.054 % control | 100.0 % control | 306 µM | 4.516 % control | 97.13 % control |
| COc1cc(SC(C)C)c(OC)cc1CCN.Cl [2C-T-4, 2-(4-(isopropylthio)-2,5-dimethoxyphenyl)ethan-1-aminium chloride] | 58.3% | 56.1% | 17.8% | 28.7% | – | 154 µM | 81.5 (79.9 to 92.1) μM | 291.4 (255.9 to 342.3) μM | 5.069 % control | 96.98 % control | 191 µM | 4.106 % control | 99.28 % control |
| CCCSc1cc(OC)c(CCN)cc1OC.Cl [2C-T-7, 2-(2,5-dimethoxy-4-(propylthio)phenyl)ethan-1-aminium chloride] | 50.8% | 50.0% | 16.9% | 24.1% | < 75 µM | 74.5 µM | 39.5 (34.4 to 44.4) μM | 140.5 (125.4 to 161.2) μM | 6.754 % control | 97.99 % control | 92.3 µM | 5.625 % control | 100.0 % control |
| CCSc1cc(OC)c(CCNCc2ccccc2OC)cc1OC.Cl [25T2-NBOMe, 2-(4-(ethylthio)-2,5-dimethoxyphenyl)-N-(2-methoxybenzyl)ethan-1-aminium chloride] | 78.7% | 74.3% | 16.0% | 23.5% | > 25 µM | 37.4 µM | – | – | 1.962 % control | 98.41 % control | 46.8 µM | 3.123 % control | 95.97 % control |
| COc1cc(SC(C)C)c(OC)cc1CCNCc1ccccc1OC.Cl [25T4-NBOMe, 2-(4-(isopropylthio)-2,5-dimethoxyphenyl)-N-(2-methoxybenzyl)ethan-1-aminium chloride] | 83.5% | 70.5% | 14.6% | 21.8% | – | 35.7 µM | – | – | – | 100.0 % control | 36 µM | 1.753 % control | 100.0 % control |
| CCCSc1cc(OC)c(CCNCc2ccccc2OC)cc1OC.Cl [25T7-NBOMe, 2-(2,5-dimethoxy-4-(propylthio)phenyl)-N-(2-methoxybenzyl)ethan-1-aminium chloride] | 90.8% | 76.8% | 12.0% | 21.4% | < 22 µM | 21.8 µM | – | – | 8.660 % control | 94.74 % control | 23.3 µM | 2.444 % control | 96.91 % control |

Source: PMC11204507, “Mechanistic Insights into the Neurotoxicity of 2,5-Dimethoxyphenethylamines (2C) and Corresponding N-(2-methoxybenzyl)phenethylamine (NBOMe) Drugs” (Journal of Xenobiotics, 2024)
